Tested on: locally advanced pancreatic cancer
Test: Post-market registry study: intra-arterial (TAMP) delivery of gemcitabine with the RenovoCath RC120 catheter
Type: in vivo, human
Experimental: A post-market registry study was conducted to assess patient survival and clinical outcomes using the RenovoCath™ RC120 catheter (RenovoRx, Los Altos, Calif.) in a clinical, prospective observational setting when used to deliver a chemotherapeutic to the pancreas as described in Table 1. [table] […] An interventional radiologist used the RenovoCath™ RC 120 catheter to optimize drug delivery to the tumor(s). At the conclusion of the case, the femoral artery arteriotomy was sealed and patient monitored as per standard institutional protocol. All patients enrolled during the two-year registry enrollment period were followed periodically for survival outcome. Patients were contacted by telephone at the following intervals after the final intra-arterial treatment: 6 months±30 days, 1 year±30 days and 2 years±30 days. Patients were assessed for serious adverse events with specific attention to events related to local delivery of chemotherapeutic agents to the pancreas and device performance. FIG. 10 is a graph 1000 illustrating the effect of the TAMP technique on patient survival after radiation therapy compared with the effect of the TAMP technique with no radiation therapy. Fifteen patients with locally advanced pancreatic cancer were treated with gemcitabine in a dose-escalated protocol administered in four cycles using the TAMP technique. […]

SMILES: Nc1ccn([C@@H]2O[C@H](CO)[C@@H](O)C2(F)F)c(=O)n1 [gemcitabine]
- survival rates (survival percentage) of patients (gemcitabine by TAMP (eight treatments, or more than two treatments) compared with systemic infusion of gemcitabine (Chauffert et al. 2008), FIG. 9): greater than the survival rates of the patients given systemic infusion of the same drug
- patient survival (gemcitabine by TAMP, dose-escalated, four cycles, patients with prior radiation vs no prior treatment or only prior systemic chemotherapy, FIG. 10): significant improvement in survival

Source: patent publication US12290564B2, “Methods and apparatuses for treating tumors” (RenovoRx, Inc., priority 2017, dated 2025)
